Results taken from ChEMBL document CHEMBL5236617, “Rapid Evolution of a Fragment-like Molecule to Pan-Metallo-Beta-Lactamase Inhibitors: Initial Leads toward Clinical Candidates” (J Med Chem, 2022).
Calls of active or inactive are those of the source. The calls are words filed in the database; no cut-off is given here.

System: not listed separately
Assay: Inhibition of GST-tagged bacterial beta-lactamase […] expressed in Escherichia coli BL21(DE3) using CCF2-FA as substrate by fluorescence assay
Parameters: species or system Bacteria
Conditions: not given

| Structure (SMILES) | IC50 [nM] |
| --- | --- |
| CC(CS)C(=O)N1CCc2ccccc2C1C(=O)O (centres undefined) | 3.5 |
| NS(=O)(=O)c1nccc(-c2ccccc2)c1-c1nn[nH]n1 | 35 |
| CCCCc1nc2ccc(O)cc2c(=O)n1Cc1ccc(-c2ccccc2-c2nnn[nH]2)cc1 | 52 |

System: not listed separately
Assay: Inhibition of GST-tagged bacterial beta-lactamase IMP-1 expressed in Escherichia coli BL21(DE3) using CCF2-FA as substrate by fluorescence assay
Parameters: species or system Bacteria
Conditions: not given

| Structure (SMILES) | IC50 [nM] |
| --- | --- |
| CC(CS)C(=O)N1CCc2ccccc2C1C(=O)O (centres undefined) | 2.7 |
| NS(=O)(=O)c1nccc(-c2ccccc2)c1-c1nn[nH]n1 | 375 |

System: not listed separately
Assay: Inhibition of GST-tagged bacterial beta-lactamase VIM-1 expressed in Escherichia coli BL21(DE3) using CCF2-FA as substrate by fluorescence assay
Parameters: species or system Bacteria
Conditions: not given

| Structure (SMILES) | IC50 [nM] |
| --- | --- |
| CC(CS)C(=O)N1CCc2ccccc2C1C(=O)O (centres undefined) | 7.4 |
| NS(=O)(=O)c1nccc(-c2ccccc2)c1-c1nn[nH]n1 | 201 |
| CCCCc1nc2ccc(O)cc2c(=O)n1Cc1ccc(-c2ccccc2-c2nnn[nH]2)cc1 | 13 |

System: Escherichia coli
Assay: Potentiation of imipenem-induced antibacterial activity against NDM-1 expressing Escherichia coli assessed as imipenem MIC incubated for 22 to 24 hrs (reference value: 32 ug/ml)
Format: functional
Conditions: time 22-24 hrs

| Structure (SMILES) | MITC95 [µM] |
| --- | --- |
| NS(=O)(=O)c1cccc(-c2ccnc(CO)c2)c1-c1nn[nH]n1 | 0.39 |
| NS(=O)(=O)c1nccc(-c2ccccc2)c1-c1nn[nH]n1 | <0.195 |

System: Serratia marcescens
Assay: Potentiation of imipenem-induced antibacterial activity against IMP-1 expressing Serratia marcescens assessed as imipenem MIC incubated for 22 to 24 hrs (reference value: 16 ug/ml)
Format: functional
Conditions: time 22-24 hrs

| Structure (SMILES) | MITC95 [µM] |
| --- | --- |
| NS(=O)(=O)c1cccc(-c2ccnc(CO)c2)c1-c1nn[nH]n1 | 50 |

Target: Voltage-gated inwardly rectifying potassium channel KCNH2 (Homo sapiens, UniProt Q12809)
Sequence (Q12809 whole entry): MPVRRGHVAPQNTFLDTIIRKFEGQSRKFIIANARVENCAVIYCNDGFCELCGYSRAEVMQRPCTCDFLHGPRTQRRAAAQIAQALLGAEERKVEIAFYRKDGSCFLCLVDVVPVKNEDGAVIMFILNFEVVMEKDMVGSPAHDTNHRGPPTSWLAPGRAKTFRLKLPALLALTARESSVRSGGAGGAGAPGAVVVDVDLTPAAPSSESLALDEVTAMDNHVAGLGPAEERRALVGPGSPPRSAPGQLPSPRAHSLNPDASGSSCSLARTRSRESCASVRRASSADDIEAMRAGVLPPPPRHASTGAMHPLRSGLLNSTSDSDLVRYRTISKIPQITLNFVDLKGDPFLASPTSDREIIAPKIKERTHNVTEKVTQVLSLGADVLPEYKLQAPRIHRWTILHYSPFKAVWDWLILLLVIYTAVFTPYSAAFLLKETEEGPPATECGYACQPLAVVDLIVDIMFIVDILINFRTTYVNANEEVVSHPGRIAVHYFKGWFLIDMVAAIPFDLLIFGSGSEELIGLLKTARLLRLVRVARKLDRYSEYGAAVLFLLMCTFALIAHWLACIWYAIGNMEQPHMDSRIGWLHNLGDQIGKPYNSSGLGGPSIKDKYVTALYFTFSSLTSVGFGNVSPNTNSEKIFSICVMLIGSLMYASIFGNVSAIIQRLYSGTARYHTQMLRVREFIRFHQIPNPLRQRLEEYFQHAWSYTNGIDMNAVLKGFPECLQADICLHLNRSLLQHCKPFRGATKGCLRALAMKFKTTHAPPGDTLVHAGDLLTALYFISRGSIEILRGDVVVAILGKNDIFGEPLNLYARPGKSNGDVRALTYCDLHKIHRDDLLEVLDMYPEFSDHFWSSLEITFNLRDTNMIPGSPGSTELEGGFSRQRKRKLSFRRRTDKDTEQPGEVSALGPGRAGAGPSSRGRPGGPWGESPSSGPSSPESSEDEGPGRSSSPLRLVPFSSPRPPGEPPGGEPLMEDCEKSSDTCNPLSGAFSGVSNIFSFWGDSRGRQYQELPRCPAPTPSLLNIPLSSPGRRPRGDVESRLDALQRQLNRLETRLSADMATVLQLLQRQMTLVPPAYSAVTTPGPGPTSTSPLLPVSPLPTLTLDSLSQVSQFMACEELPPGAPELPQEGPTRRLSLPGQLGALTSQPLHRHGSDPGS
Assay: Displacement of MK499 from human ERG
Conditions: not given

| Structure (SMILES) | IC50 [µM] |
| --- | --- |
| NS(=O)(=O)c1nccc(-c2ccc(CO)cc2)c1-c1nnn[nH]1 | > 60 |

Target: Sodium channel protein type 5 subunit alpha (Homo sapiens, UniProt Q14524)
Sequence (Q14524 whole entry): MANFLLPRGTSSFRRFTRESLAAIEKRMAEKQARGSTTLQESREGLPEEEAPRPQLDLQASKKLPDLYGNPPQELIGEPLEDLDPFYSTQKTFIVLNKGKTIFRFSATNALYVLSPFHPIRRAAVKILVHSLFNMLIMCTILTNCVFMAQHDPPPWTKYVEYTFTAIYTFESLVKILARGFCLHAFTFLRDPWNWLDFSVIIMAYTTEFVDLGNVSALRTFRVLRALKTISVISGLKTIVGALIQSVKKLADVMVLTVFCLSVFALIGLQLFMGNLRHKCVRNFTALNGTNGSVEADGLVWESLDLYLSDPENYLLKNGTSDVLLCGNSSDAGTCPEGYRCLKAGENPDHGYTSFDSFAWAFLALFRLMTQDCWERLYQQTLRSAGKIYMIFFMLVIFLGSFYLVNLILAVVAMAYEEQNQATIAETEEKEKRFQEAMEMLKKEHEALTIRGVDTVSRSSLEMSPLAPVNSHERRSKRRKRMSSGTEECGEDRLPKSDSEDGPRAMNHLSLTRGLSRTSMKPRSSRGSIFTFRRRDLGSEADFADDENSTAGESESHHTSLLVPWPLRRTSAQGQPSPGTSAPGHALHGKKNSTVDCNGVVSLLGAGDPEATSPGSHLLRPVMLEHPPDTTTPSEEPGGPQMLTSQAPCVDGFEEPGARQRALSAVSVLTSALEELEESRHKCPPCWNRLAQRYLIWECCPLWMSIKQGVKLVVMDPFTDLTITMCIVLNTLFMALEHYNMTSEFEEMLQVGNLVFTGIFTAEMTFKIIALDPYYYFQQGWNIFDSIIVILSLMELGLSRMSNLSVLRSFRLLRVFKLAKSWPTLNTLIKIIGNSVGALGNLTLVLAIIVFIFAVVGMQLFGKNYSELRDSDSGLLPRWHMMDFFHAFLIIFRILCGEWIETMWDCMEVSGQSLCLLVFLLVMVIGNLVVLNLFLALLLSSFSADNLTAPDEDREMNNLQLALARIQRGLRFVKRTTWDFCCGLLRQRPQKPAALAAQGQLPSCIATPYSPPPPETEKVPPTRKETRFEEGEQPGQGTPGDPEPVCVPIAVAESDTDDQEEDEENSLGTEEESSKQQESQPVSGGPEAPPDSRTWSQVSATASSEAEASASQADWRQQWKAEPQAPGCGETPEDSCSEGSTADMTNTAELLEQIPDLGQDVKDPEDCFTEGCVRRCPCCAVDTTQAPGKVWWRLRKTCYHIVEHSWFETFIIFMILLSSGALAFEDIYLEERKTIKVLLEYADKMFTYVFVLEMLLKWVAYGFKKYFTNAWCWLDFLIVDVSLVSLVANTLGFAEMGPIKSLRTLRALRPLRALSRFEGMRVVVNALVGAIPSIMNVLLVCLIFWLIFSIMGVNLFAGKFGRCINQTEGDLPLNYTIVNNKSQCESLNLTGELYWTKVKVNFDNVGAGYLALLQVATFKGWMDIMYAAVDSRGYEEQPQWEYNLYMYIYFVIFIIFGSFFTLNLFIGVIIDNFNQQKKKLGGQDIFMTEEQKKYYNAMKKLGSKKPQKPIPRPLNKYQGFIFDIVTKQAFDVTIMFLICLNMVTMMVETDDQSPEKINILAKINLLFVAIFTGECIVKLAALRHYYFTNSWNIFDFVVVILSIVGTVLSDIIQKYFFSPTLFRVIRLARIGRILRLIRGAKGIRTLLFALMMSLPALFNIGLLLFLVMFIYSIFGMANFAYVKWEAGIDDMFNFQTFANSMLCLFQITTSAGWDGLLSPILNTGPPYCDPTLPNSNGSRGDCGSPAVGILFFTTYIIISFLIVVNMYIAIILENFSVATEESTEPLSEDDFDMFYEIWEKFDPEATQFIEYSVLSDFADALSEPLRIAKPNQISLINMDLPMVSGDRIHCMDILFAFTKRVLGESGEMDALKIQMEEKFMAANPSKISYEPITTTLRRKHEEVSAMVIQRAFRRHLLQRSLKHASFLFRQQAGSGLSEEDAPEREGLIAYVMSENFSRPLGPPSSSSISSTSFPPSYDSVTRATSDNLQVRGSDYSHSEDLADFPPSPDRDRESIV
Assay: Inhibition of Nav1.5 (unknown origin)
Conditions: not given

| Structure (SMILES) | IC50 [µM] |
| --- | --- |
| NS(=O)(=O)c1nccc(-c2ccc(CO)cc2)c1-c1nnn[nH]1 | > 30 |

Target: Cytochrome P450 3A4 (Homo sapiens, UniProt P08684)
Sequence (P08684 whole entry): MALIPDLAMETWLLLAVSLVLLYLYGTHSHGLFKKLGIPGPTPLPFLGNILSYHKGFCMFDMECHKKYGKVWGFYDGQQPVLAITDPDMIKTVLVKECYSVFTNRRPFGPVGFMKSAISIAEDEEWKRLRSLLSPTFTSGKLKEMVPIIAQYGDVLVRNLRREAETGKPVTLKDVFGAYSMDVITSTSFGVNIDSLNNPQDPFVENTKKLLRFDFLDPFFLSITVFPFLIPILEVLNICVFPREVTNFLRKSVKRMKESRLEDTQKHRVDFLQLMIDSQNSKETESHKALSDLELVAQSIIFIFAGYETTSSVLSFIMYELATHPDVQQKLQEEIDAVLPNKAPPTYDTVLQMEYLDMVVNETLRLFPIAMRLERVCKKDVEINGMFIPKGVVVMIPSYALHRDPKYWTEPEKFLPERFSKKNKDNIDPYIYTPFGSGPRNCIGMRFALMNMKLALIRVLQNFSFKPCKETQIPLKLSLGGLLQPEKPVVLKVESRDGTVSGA
Assay: Reversible inhibition of CYP3A4 (unknown origin)
Format: ADME
Conditions: not given

| Structure (SMILES) | IC50 [µM] |
| --- | --- |
| NS(=O)(=O)c1nccc(-c2ccc(CO)cc2)c1-c1nnn[nH]1 | > 30 |

Target: Cytochrome P450 2D6 (Homo sapiens, UniProt P10635)
Sequence (P10635 whole entry): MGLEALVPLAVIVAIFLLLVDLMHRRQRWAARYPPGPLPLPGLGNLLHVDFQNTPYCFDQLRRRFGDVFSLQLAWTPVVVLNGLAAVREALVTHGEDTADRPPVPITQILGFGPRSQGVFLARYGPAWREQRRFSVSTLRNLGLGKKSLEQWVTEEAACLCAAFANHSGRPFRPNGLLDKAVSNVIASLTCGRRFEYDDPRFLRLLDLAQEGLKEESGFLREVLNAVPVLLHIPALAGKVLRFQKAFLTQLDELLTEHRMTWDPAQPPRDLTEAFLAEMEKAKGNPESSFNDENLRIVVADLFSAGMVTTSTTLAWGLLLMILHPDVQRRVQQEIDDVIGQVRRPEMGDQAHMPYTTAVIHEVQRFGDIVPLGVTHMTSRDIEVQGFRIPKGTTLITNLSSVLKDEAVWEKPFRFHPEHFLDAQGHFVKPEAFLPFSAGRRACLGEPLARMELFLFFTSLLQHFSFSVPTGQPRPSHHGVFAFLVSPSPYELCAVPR
Assay: Reversible inhibition of CYP2D6 (unknown origin)
Format: ADME
Conditions: not given

| Structure (SMILES) | IC50 [µM] |
| --- | --- |
| NS(=O)(=O)c1nccc(-c2ccc(CO)cc2)c1-c1nnn[nH]1 | > 30 |

Target: Cytochrome P450 2C9 (Homo sapiens, UniProt P11712)
Sequence (P11712 whole entry): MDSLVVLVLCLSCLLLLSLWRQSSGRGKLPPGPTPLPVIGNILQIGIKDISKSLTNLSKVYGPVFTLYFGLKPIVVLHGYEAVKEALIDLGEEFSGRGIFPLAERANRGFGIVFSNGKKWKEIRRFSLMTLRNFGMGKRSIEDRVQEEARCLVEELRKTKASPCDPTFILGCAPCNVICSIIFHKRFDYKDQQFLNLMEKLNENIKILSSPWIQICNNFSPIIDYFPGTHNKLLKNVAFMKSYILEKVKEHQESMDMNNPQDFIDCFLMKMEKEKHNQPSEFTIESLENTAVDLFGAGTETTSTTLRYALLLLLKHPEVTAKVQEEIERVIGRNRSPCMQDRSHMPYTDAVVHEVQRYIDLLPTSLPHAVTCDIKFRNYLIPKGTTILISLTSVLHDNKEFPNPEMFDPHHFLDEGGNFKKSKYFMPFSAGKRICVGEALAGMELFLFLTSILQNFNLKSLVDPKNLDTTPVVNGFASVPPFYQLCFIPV
Assay: Reversible inhibition of CYP2C9 (unknown origin)
Format: ADME
Conditions: not given

| Structure (SMILES) | IC50 [µM] |
| --- | --- |
| NS(=O)(=O)c1nccc(-c2ccc(CO)cc2)c1-c1nnn[nH]1 | > 30 |

Target: T1, Nuclear receptor subfamily 1 group I member 2 (Homo sapiens, UniProt O75469)
T1 sequence (O75469 whole entry): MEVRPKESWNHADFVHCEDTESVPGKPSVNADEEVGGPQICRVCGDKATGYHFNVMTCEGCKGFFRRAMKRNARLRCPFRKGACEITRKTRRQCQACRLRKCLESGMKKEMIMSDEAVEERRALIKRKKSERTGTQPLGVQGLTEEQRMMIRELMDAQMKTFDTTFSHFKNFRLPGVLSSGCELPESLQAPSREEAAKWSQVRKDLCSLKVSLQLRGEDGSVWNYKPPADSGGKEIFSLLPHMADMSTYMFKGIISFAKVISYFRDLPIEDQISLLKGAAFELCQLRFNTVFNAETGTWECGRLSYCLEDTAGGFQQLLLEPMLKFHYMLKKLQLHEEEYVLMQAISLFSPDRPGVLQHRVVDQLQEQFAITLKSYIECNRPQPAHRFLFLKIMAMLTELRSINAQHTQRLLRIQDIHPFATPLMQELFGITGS
Assay: Inhibition of human PXR
Conditions: not given

| Structure (SMILES) | IC50 [µM] |
| --- | --- |
| NS(=O)(=O)c1nccc(-c2ccc(CO)cc2)c1-c1nnn[nH]1 | > 30 |

Target: T2, PXR (NR1I2) (Homo sapiens, UniProt O75469)
T2 sequence (O75469 whole entry): T1 sequence (O75469 whole entry)
Assay: Inhibition of human PXR at 30 uM relative to control
Conditions: not given

| Structure (SMILES) | Emax at 30 µM [%] |
| --- | --- |
| NS(=O)(=O)c1nccc(-c2ccc(CO)cc2)c1-c1nnn[nH]1 | 1.94 |

System: not listed separately
Assay: Plasma protein binding in C57BL/6 mouse assessed as unbound fraction
Format: ADME, cell-free
Conditions: not given

| Structure (SMILES) | fraction unbound |
| --- | --- |
| NS(=O)(=O)c1nccc(-c2ccc(CO)cc2)c1-c1nnn[nH]1 | 0.43 |

System: not listed separately
Assay: Plasma protein binding in Wistar Han rat assessed as unbound fraction
Format: ADME, cell-free
Conditions: not given

| Structure (SMILES) | fraction unbound |
| --- | --- |
| NS(=O)(=O)c1nccc(-c2ccc(CO)cc2)c1-c1nnn[nH]1 | 0.3 |

System: not listed separately
Assay: Plasma protein binding in human assessed as unbound fraction
Format: ADME, cell-free
Conditions: not given

| Structure (SMILES) | fraction unbound |
| --- | --- |
| NS(=O)(=O)c1nccc(-c2ccc(CO)cc2)c1-c1nnn[nH]1 | 0.23 |

System: not listed separately
Assay: AUC in mouse at 5 mg/kg, iv
Format: ADME, organism-based
Parameters: dose 5 mg/kg, route iv
Conditions: in vivo

| Structure (SMILES) | AUC [µM·h] |
| --- | --- |
| NS(=O)(=O)c1nccc(-c2ccc(CO)cc2)c1-c1nnn[nH]1 | 27.1 |

System: not listed separately
Assay: MRT in mouse at 5 mg/kg, iv
Format: ADME, organism-based
Conditions: in vivo

| Structure (SMILES) | MRT [h] |
| --- | --- |
| NS(=O)(=O)c1nccc(-c2ccc(CO)cc2)c1-c1nnn[nH]1 | 5.2 |

System: not listed separately
Assay: Volume of distribution at steady state in mouse at 5 mg/kg, iv
Format: ADME, organism-based
Conditions: in vivo, read-out: Vdss

| Structure (SMILES) | Vd [L/kg] |
| --- | --- |
| NS(=O)(=O)c1nccc(-c2ccc(CO)cc2)c1-c1nnn[nH]1 | 2.97 |

System: not listed separately
Assay: Clearance in mouse at 5 mg/kg, iv
Format: ADME, organism-based
Conditions: in vivo

| Structure (SMILES) | clearance [mL/min/kg] |
| --- | --- |
| NS(=O)(=O)c1nccc(-c2ccc(CO)cc2)c1-c1nnn[nH]1 | 9.33 |

System: not listed separately
Assay: AUC in mouse at 10 mg/kg, sc
Format: ADME, organism-based
Parameters: dose 10 mg/kg, route sc
Conditions: in vivo

| Structure (SMILES) | AUC [µM·h] |
| --- | --- |
| NS(=O)(=O)c1nccc(-c2ccc(CO)cc2)c1-c1nnn[nH]1 | 27.4 |

System: not listed separately
Assay: AUC in mouse at 50 mg/kg, sc
Format: ADME, organism-based
Parameters: dose 50 mg/kg, route sc
Conditions: in vivo

| Structure (SMILES) | AUC [µM·h] |
| --- | --- |
| NS(=O)(=O)c1nccc(-c2ccc(CO)cc2)c1-c1nnn[nH]1 | 111 |

System: not listed separately
Assay: Cmax in mouse at 10 mg/kg, sc
Format: ADME, organism-based
Parameters: dose 10 mg/kg, route sc
Conditions: in vivo

| Structure (SMILES) | Cmax [µM] |
| --- | --- |
| NS(=O)(=O)c1nccc(-c2ccc(CO)cc2)c1-c1nnn[nH]1 | 13.4 |

System: not listed separately
Assay: Cmax in mouse at 50 mg/kg, sc
Format: ADME, organism-based
Parameters: dose 50 mg/kg, route sc
Conditions: in vivo

| Structure (SMILES) | Cmax [µM] |
| --- | --- |
| NS(=O)(=O)c1nccc(-c2ccc(CO)cc2)c1-c1nnn[nH]1 | 69.1 |

System: not listed separately
Assay: Tmax in mouse at 10 mg/kg, sc
Format: ADME, organism-based
Conditions: in vivo

| Structure (SMILES) | Tmax [min] |
| --- | --- |
| NS(=O)(=O)c1nccc(-c2ccc(CO)cc2)c1-c1nnn[nH]1 | 49.8 |

System: not listed separately
Assay: Tmax in mouse at 50 mg/kg, sc
Format: ADME, organism-based
Conditions: in vivo

| Structure (SMILES) | Tmax [min] |
| --- | --- |
| NS(=O)(=O)c1nccc(-c2ccc(CO)cc2)c1-c1nnn[nH]1 | 30 |

System: Klebsiella pneumoniae
Assay: Antibacterial activity against Klebsiella pneumoniae MB9249 expressing IMP-26 infected in cyclophosphamide treated DBA/2 mouse assessed as reduction in bacterial burden in kidney at 5 mg/kg, sc administered three times for 1 day and measured after 24 hrs post injection
Format: functional, organism-based
Conditions: not given

| Structure (SMILES) | Activity |
| --- | --- |
| C[C@@H](O)[C@H]1C(=O)N2C(C(=O)O)=C(SCCNC=N)C[C@H]12 | Active |

System: Klebsiella pneumoniae
Assay: Antibacterial activity against Klebsiella pneumoniae MB9249 expressing IMP-26 infected in cyclophosphamide treated DBA/2 mouse assessed as reduction in bacterial burden in spleen at 5 mg/kg, sc administered three times for 1 day and measured after 24 hrs post injection
Format: functional, organism-based
Conditions: not given

| Structure (SMILES) | Activity |
| --- | --- |
| C[C@@H](O)[C@H]1C(=O)N2C(C(=O)O)=C(SCCNC=N)C[C@H]12 | Active |

Target: CYP3A4 (Homo sapiens, UniProt P08684)
Sequence (P08684 whole entry): as the sequence (P08684 whole entry) above
Assay: in vitro
Conditions: not given

| Structure (SMILES) | IC50 shift |
| --- | --- |
| NS(=O)(=O)c1nccc(-c2ccc(CO)cc2)c1-c1nnn[nH]1 | 1 |
